Measurements from patent publication US7700644B2, “Isoflavonoid dimers” (Novogen Research Pty Ltd, priority 2005, dated 2010).

Tests used:
[1] = Oral pharmacokinetics in mice; assay type: in vivo, female BALB/c mice; conditions: 50 mg/kg
Protocol: 4,9-Dihydroxy-14,15-dimethoxy-12a-(3′,4′-dimethoxyphenyl)-3,10-dimethyl-2,11-dioxa-(1H,12H)-6b,6c,12a,16b-tetrahydronaphtho[1,2-g]chrysene (2) from Example 6.1 was prepared as homogenous suspensions in 1% CMC (m:v, water). The Cpd. 2 formulation was delivered orally by gavage to female BALB/c mice at a dosage of 50 mg/kg. Three animals were allocated to each time point (15 min, 30 min, 1 hr, 4 hr and 24 hr). At each respective time point, animals were euthanased by cervical dislocation and blood collected. Free Cpd.

[2] = test system: HPAC (Pancreatic) cells; test: Chemosensitisation, combination with antineoplastic agent, HPAC; assay type: cell-based, human
Protocol: The utility of the dimeric compounds of the invention to act as a chemosensitiser when used in combination with an array of standard chemotherapeutic agents was assessed. Dimeric Cpd. 2 was applied to various colorectal and pancreatic cancer cell lines to investigate its synergy with standard chemotherapeutic agents including cisplatin, gemcitabine, paclitaxel, doxorubicin, camptothecin and topotecan.
The experiment as outlined in SOP-BD011 (Versions A and B) was used to screen three antineoplastic agents against a given cell line in any ‘one’ experiment (see for example Kanzawa et al., (1997)). The inherent design of the experiment allowed for three sequences of Cpd. 2 and an antineoplastic agent. • 1) Direct Sequence—Cells are treated with both Cpd. 2 and a single antineoplastic agent (combined) for 5 days. • 2) Cpd. 2 First (Forward) Sequence—Cells are treated for 24 hours with Cpd. 2 before replacing with a 24 hour antineoplastic agent treatment; drugs are then washed out and processed on Day 5. • 3) Reverse Sequence—The reverse order to experiment No. 2 above. i.e. a cytotoxin first sequence Results and Conclusions
All data was evaluated using the formulae of theoretic additivity incorporated into a three dimensional model, as described by Kanzawa et al. (1997). […]

[3] = test system: TNFα synthesis; test: TNFα synthesis in human monocytes incubated with LPS; assay type: cell-based; conditions: LPS 200 ng/mL, 18 hrs
Protocol: (§1) Human peripheral blood monocytes (from three separate individuals) were isolated from buffy coats by lymphoprep gradient separation of mononuclear cells followed by counter-current centrifugal elutriation (Demasi et al. 2000). The test compounds were dissolved in DMSO and added to fresh monocytes After 30 min, LPS was added to achieve a final concentration of 200 ng/mL. After incubation for 18 hrs at 37° C. in 5% CO2, supernatants were removed and PGE2, TXB2 (the stable hydrolysis product of TXA2) and TNFα production were measured by radioimmunoassay (RIA).

[4] = test system: PGE2 synthesis; test: PGE2 synthesis in human monocytes incubated with LPS; assay type: cell-based; conditions: LPS 200 ng/mL, 18 hrs, dose responsive
Protocol: as §1

[5] = test system: human pancreatic cancer cell line, HPAC (CRL-2119); test: In vitro cytotoxicity, MTT proliferation assay, CRL-2119; assay type: cell-based; conditions: Homo sapiens, HPAC; Pancreatic CRL-2119
Protocol: (§2) The human pancreatic cancer cell line, HPAC (CRL-2119) was routinely cultured in 1:1 mixture DMEM (Sigma) plus Ham's F12 (Sigma) medium containing HEPES (15 mM), insulin (0.002 mg/ml), transferrin (0.005 mg/ml), hydrocortisone, (40 ng/ml), epidermal growth factor (10 ng/ml). The ovarian cancer cell line CP70 was obtained as a gift from Dr. Gil Mor (Yale University) and cultured in a 1:1 mixture DMEM plus Ham's F12 medium, and SKOV-3 was purchased from ATCC and cultured in McCoy's 5a medium. The breast cancer cell line MDA-MB-468 cultured in Leibovitz's L-15 medium.
(§3) All cultures were supplemented with 10% FCS(CSL, Australia), penicillin (100 U/ml), streptomycin ([…]), L-glutamine (2 mM) and sodium bicarbonate (1.2 g/L), and cultured at 37° C. in a humidified atmosphere of 5% CO2. All remaining cell lines were purchased from ATCC (Maryland, USA) except where noted.
(§4) IC50 values were determined for each cell line. Cells were seeded in 96-well plates at an appropriate cell density as determined from growth kinetics analysis. NFFs were cultured for 5 days and RK-13s for 24 hrs in the absence and presence of the test compounds. Cell proliferation was assessed after the addition of 20 μl of 3-4,5 dimethylthiazol-2,5-diphenyl tetrazolium bromide (MTT, 2.5 mg/ml in PBS, Sigma) for 3-4 hrs at 37° C. according to manufacturer's instructions. IC50 values were calculated from semi-log plots of % of control proliferation on the y-axis against log dose on the x-axis.

[6] = test system: SKOV-3 (Ovarian); test: In vitro cytotoxicity, MTT proliferation assay, SKOV-3; assay type: cell-based, human; conditions: Homo sapiens, SK-OV-3; Ovarian SKOV-3
Protocol: as §2, §3, §4

[7] = test system: A2780 (Ovarian); test: In vitro cytotoxicity, MTT proliferation assay, A2780; assay type: cell-based, human; conditions: Homo sapiens
Protocol: as §2, §3, §4

[8] = test system: ear swelling in mice induced by the topical application of arachidonic acid (AA); test: Murine ear inflammation induced by arachidonic acid; assay type: in vivo, Female BALB/c mice
Protocol: Compound 2 was examined for its ability to inhibit ear swelling in mice induced by the topical application of arachidonic acid (AA). The inflammatory response due AA, the immediate precursor of the eicosanoids, is due to formation of AA metabolites via both the cyclooxygenase (COX) and lipoxygenase (LOX) pathways (Young et al. 1984). AA induces an early (10-15 min) increase in both PGE2 and LTC4 synthesis which precedes the increase in ear thickness (Opas et al. 1985; Chang et al. 1986).
Female BALB/c mice (ARC, WA, Australia), weighing 15-21 g were injected with Compound 2 delivered in polyethylene glycol (PEG) 400:phosphate buffered saline (PBS) 1:1 intraperitoneally (i/p) at a dose of 25 mg/kg 30 min prior to the application of AA being to the ears. Mice were anaesthetised using isoflurane and baseline thickness of both ears was measured using a spring micrometer. Each mouse received a total of […] of AA in ethanol (50 mg/ml) applied to the inner and outer surfaces of each pinna (i.e. 0.5 mg AA or 2 μg PMA per ear). […]
The difference in ear swelling pre- and post-application of AA for each ear was calculated, and the average for the two ears of each mouse calculated. The difference in mean swelling of each test group compared to the group given vehicle alone was calculated using a two-tailed unpaired t test (Prism 4, GraphPad Software).

Question: For `COc1ccc(C23COc4c(ccc(O)c4C)C2C2c4ccc(O)c(C)c4OCC2c2cc(OC)c(OC)cc23)cc1OC` (stereo not shown) [Cpd. 2, 4,9-Dihydroxy-14,15-dimethoxy-12a-(3′,4′-dimethoxyphenyl)-3,10-dimethyl-2,11-dioxa-(1H,12H)-6b,6c,12a,16b-tetrahydronaphtho[1,2-g]chrysene], which concentration at 15 min ([1]; female, BALB/c, mouse, blood, oral gavage, Time 0.25 (15 min), read-out: Free concentration in blood) is on record?
Answer: Its concentration at 15 min is 1330 nM.

Question: And the concentration at 30 min ([1]; female, BALB/c, mouse, blood, oral gavage, Time 0.5 (30 min), read-out: Free concentration in blood)?
Answer: The concentration at 30 min was 4.93 µM.

Question: What about the concentration at 1 h ([1]; female, BALB/c, mouse, blood, oral gavage, Time 1 (1 hr), read-out: Free concentration in blood) of the same compound?
Answer: The concentration at 1 h was 6.76 µM.

Question: What about the concentration at 4 h ([1]; female, BALB/c, mouse, blood, oral gavage, Time 4 (4 hr), read-out: Free concentration in blood) of the same compound?
Answer: Its concentration at 4 h is 6.31 µM.

Question: What about the concentration at 24 h ([1]; female, BALB/c, mouse, blood, oral gavage, Time 24 (24 hr), read-out: Free concentration in blood) of the same compound?
Answer: Its concentration at 24 h is 1150 nM.

Question: And the “half-life compared to dehydroequol” value ([1]; oral)?
Answer: The value was “superior half-life at times up to 4 hours compared to dehydroequol”.

Question: What about the “rate of conjugation compared to dehydroequol” value ([1]; oral) of the same compound?
Answer: Its value is “slow rate of conjugation compared to dehydroequol”.

Question: What about the “synergy with Gemcitabine” value ([2]; Cpd. 2 concentrations greater than 5 μM) of the same compound?
Answer: Its value is “Synergy was not observed”.

Question: And the “synergy with Gemcitabine” value ([2]; simultaneously (A) or 24 hour sequences (B,C))?
Answer: The value was “synergistic cytotoxicity”.

Question: What about the “effect on induction of TNFα” value [3] of the same compound?
Answer: Its value is “inhibited”.

Question: And the “effect on PGE2 synthesis” value [4]?
Answer: Its value is “induced”.

Question: What about the IC50 [5] of the same compound?
Answer: Its IC50 is 11.2 ± 4.7 µM.

Question: And the IC50 [6]?
Answer: Its IC50 is 16.7 ± 10 µM.

Question: What about the IC50 [7] of the same compound?
Answer: The IC50 was 10.16 ± 0.07 µM.

Question: And the “Change in ear thickness (mean ± SD, ×0.01 mm)” value ([8]; 25 mg/kg i/p 30 min prior to AA, 1 hr post-AA, vehicle 14.5 ± 4.7)?
Answer: The value was 5.1 ± 1.7 ×0.01 mm.

Question: What about the “ear thickness compared with vehicle alone” value ([8]; 25 mg/kg i/p, AA-induced) of the same compound?
Answer: The value was “significant reduction”.
